# Assay results published in patent publication US20170045513A1, “METHODS OF DIAGNOSING CELIAC DISEASE USING IP-10” (ImmusanT, Inc., priority 2014, published 2017).
# Non-standard residues stand in square brackets, D forms with d. pGlu = O=C1CC[C@@H](C(=O)O)N1
# Columns and labels:
# Type in all cases: cell-based, human
# [1] = test system: gluten-reactive T cells; test: 96-well plate whole blood cytokine release, IFNγ by MAGPIX multiplex bead assay; conditions: for Percent of maximal response to individual gluten peptides, IFNg: after oral gluten challenge; for IFNγ WB MAGPIX % max Mean: n = 8, blood after oral gluten challenge, individual peptides 5 μM (Peptide 2* of P14, Pepscan: 10 μg/mL (5.45 μM))
# [2] = test system: gluten-reactive T cells; test: Overnight IFNγ ELISpot assay with fresh PBMC; conditions: for Percent of maximal response to individual gluten peptides, ELISp: after oral gluten challenge; for IFNγ ELISpot % max Mean: n = 5, blood after oral gluten challenge, individual peptides 5 μM (Peptide 2* of P14, Pepscan: 10 μg/mL (5.45 μM))
# Experimental: HLA-DQ2.5-positive celiac disease subjects on gluten-free diet were used in this study. Blood was collected immediately before and 6 days after commencing 3-day oral gluten challenge. Whole blood or PBMCs were incubated with pools or single peptides derived from gluten or recall antigens. IFNγ and IP-10 levels were measured in plasma from the whole blood that was incubated in 96-well plates with peptides or peptide pools. Plasma cytokine/chemokine levels were measured by MAGPIX® multiplex bead assay (IFNγ and IP-10) or by ELISA (IFNγ and IP-10), and PBMC separated from the same blood sample were incubated in overnight IFNγ ELISpot assays.
# Overnight IFNγ ELISpot assays (Human IFN-γ ELISpotPRO kit, transparent, ALP; Mabtech AB, #3420-2APT-10) were performed using PBMC freshly separated from heparinized blood diluted 1:1 in PBS with 2% fetal bovine serum (Stemcell Technologies #07905; Vancouver, BC, V5Z 1B3, Canada) overlaid on density gradient medium (Ficoll-Paque™ PLUS; GE Healthcare Lice Sciences #:17-1440-02) in SepMate™-50 tubes (Stemcell Technologies #15460). PBMC (8 million/mL) were resuspended in serum-free medium with gentamicin and phenol red (X-VIVO™15; Lonza, Walkersville Mass. 21793). PBMC (0.4 million/50 pt/well) and incubated with 50 μL 80% X-vivo15, 0.2% DMSO and 20% PBS in three triplicate wells (“medium only”), or with 50 μL PHA-L 20 μg/ml or peptide at 2× final concentration in 80% X-vivo15, 0.2% DMSO and 20% PBS. Peptide solutions to be added to individual ELISpot wells were prepared in 96-well U-bottom plates (60 pt/well) that were then sealed with adhesive ELISA plate cover slips before replacing the plastic lid and being frozen at −80° C. 96-well plates containing peptide solutions were thawed at room temperature for 10 min while being centrifuged at 300 g immediately prior to being added to ELISpot wells. Peptide pools and mitogen were assessed in triplicate wells, and individual peptides were assessed in duplicate wells. X-VIVO™15 (50 μL) was incubated with 80% X-vivo15, 0.2% DMSO and 20% PBS (50 μL) in triplicate wells (“no PBMC” control). A Zeiss automated ELISpot counter was used to determine spot forming units (SFU) per well (Zellnet Inc., Fort Lee, N J 07024). Laboratory staff were unaware of the arrangement of peptide solutions in ELISpot wells during assay setup and plate counting.
# [3] = test system: gluten-reactive T cells; test: 96-well plate whole blood cytokine release, IP-10 by MAGPIX multiplex bead assay; conditions: for Percent of maximal response to individual gluten peptides, IP-10: after oral gluten challenge; for IP-10 WB MAGPIX % max Mean: n = 10, blood after oral gluten challenge, individual peptides 5 μM (Peptide 2* of P14, Pepscan: 10 μg/mL (5.45 μM))
Substance,"Percent of maximal response to individual gluten peptides, IFNg ([1]; Subject 2, Max. 116 pg/mL)","Percent of maximal response to individual gluten peptides, IFNg ([1]; Subject 3, Max. 799 pg/mL)","Percent of maximal response to individual gluten peptides, IFNg ([1]; Subject 4, Max. 136 pg/mL)","Percent of maximal response to individual gluten peptides, IFNg ([1]; Subject 6, Max. 72 pg/mL)","Percent of maximal response to individual gluten peptides, IFNg ([1]; Subject 7, Max. 17 pg/mL)","Percent of maximal response to individual gluten peptides, IFNg ([1]; Subject 8, Max. 47 pg/mL)","Percent of maximal response to individual gluten peptides, IFNg ([1]; Subject 9, Max. 67 pg/mL)","Percent of maximal response to individual gluten peptides, IFNg ([1]; Subject 10, Max. 229 pg/mL)",IFNγ WB MAGPIX % max Mean [1],"Percent of maximal response to individual gluten peptides, ELISp ([2]; Subject 3, Max. 18 SFU)","Percent of maximal response to individual gluten peptides, ELISp ([2]; Subject 4, Max. 36 SFU)","Percent of maximal response to individual gluten peptides, ELISp ([2]; Subject 6, Max. 16 SFU)","Percent of maximal response to individual gluten peptides, ELISp ([2]; Subject 8, Max. 17 SFU)","Percent of maximal response to individual gluten peptides, ELISp ([2]; Subject 10, Max. 11 SFU)",IFNγ ELISpot % max Mean [2],"Percent of maximal response to individual gluten peptides, IP-10 ([3]; Subject 1, Max. 2331 pg/mL)","Percent of maximal response to individual gluten peptides, IP-10 ([3]; Subject 2, Max. 3646 pg/mL)","Percent of maximal response to individual gluten peptides, IP-10 ([3]; Subject 3, Max. 9492 pg/mL)","Percent of maximal response to individual gluten peptides, IP-10 ([3]; Subject 4, Max. 9463 pg/mL)","Percent of maximal response to individual gluten peptides, IP-10 ([3]; Subject 5, Max. 9336 pg/mL)",also measured
(pE)LQPFPQPELPYPQPQ-amide ([pGlu]LQPFPQPELPYPQPQ-NH2; SMILES CC(C)C[C@H](NC(=O)[C@@H]1CCC(=O)N1)C(=O)N[C@@H](CCC(N)=O)C(=O)N1CCC[C@H]1C(=O)N[C@@H](Cc1ccccc1)C(=O)N1CCC[C@H]1C(=O)N[C@@H](CCC(N)=O)C(=O)N1CCC[C@H]1C(=O)N[C@@H](CCC(=O)O)C(=O)N[C@@H](CC(C)C)C(=O)N1CCC[C@H]1C(=O)N[C@@H](Cc1ccc(O)cc1)C(=O)N1CCC[C@H]1C(=O)N[C@@H](CCC(N)=O)C(=O)N1CCC[C@H]1C(=O)N[C@@H](CCC(N)=O)C(N)=O) [Peptide 1],100 % of max,14 % of max,26 % of max,25 % of max,43 % of max,6 % of max,43 % of max,7 % of max,33 % max,11 % of max,22 % of max,25 % of max,0 % of max,9 % of max,13 % max,100 % of max,100 % of max,≥ 100 % of max,96 % of max,14 % of max,"Percent of maximal response to individual gluten peptides, IP-10 ([3]; Subject 6, Max. 5863 pg/mL): 23 % of max; Percent of maximal response to individual gluten peptides, IP-10 ([3]; Subject 7, Max. 2330 pg/mL): 39 % of max; Percent of maximal response to individual gluten peptides, IP-10 ([3]; Subject 8, Max. 4019 pg/mL): 3 % of max; Percent of maximal response to individual gluten peptides, IP-10 ([3]; Subject 9, Max. 8349 pg/mL): 75 % of max; Percent of maximal response to individual gluten peptides, IP-10 ([3]; Subject 10, Max. 8922 pg/mL): 34 % of max; IP-10 WB MAGPIX % max Mean [3]: 58 % max"
(pE)PEQPEQPFPEQPQQ-amide ([pGlu]PEQPEQPFPEQPQQ-NH2; SMILES NC(=O)CC[C@H](NC(=O)[C@H](CCC(N)=O)NC(=O)[C@@H]1CCCN1C(=O)[C@H](CCC(N)=O)NC(=O)[C@H](CCC(=O)O)NC(=O)[C@@H]1CCCN1C(=O)[C@H](Cc1ccccc1)NC(=O)[C@@H]1CCCN1C(=O)[C@H](CCC(N)=O)NC(=O)[C@H](CCC(=O)O)NC(=O)[C@@H]1CCCN1C(=O)[C@H](CCC(N)=O)NC(=O)[C@H](CCC(=O)O)NC(=O)[C@@H]1CCCN1C(=O)[C@@H]1CCC(=O)N1)C(N)=O) [Peptide 11],0 % of max,0 % of max,0 % of max,0 % of max,0 % of max,0 % of max,0 % of max,0 % of max,0 % max,0 % of max,3 % of max,6 % of max,6 % of max,0 % of max,3 % max,0 % of max,0 % of max,6 % of max,2 % of max,0 % of max,"Percent of maximal response to individual gluten peptides, IP-10 ([3]; Subject 6, Max. 5863 pg/mL): 0 % of max; Percent of maximal response to individual gluten peptides, IP-10 ([3]; Subject 7, Max. 2330 pg/mL): 0 % of max; Percent of maximal response to individual gluten peptides, IP-10 ([3]; Subject 8, Max. 4019 pg/mL): 0 % of max; Percent of maximal response to individual gluten peptides, IP-10 ([3]; Subject 9, Max. 8349 pg/mL): 0 % of max; Percent of maximal response to individual gluten peptides, IP-10 ([3]; Subject 10, Max. 8922 pg/mL): 0 % of max; IP-10 WB MAGPIX % max Mean [3]: 1 % max"
(pE)PEQPFPEQPIPEQPQPYP-amide ([pGlu]PEQPFPEQPIPEQPQPYP-NH2; SMILES CC[C@H](C)[C@H](NC(=O)[C@@H]1CCCN1C(=O)[C@H](CCC(N)=O)NC(=O)[C@H](CCC(=O)O)NC(=O)[C@@H]1CCCN1C(=O)[C@H](Cc1ccccc1)NC(=O)[C@@H]1CCCN1C(=O)[C@H](CCC(N)=O)NC(=O)[C@H](CCC(=O)O)NC(=O)[C@@H]1CCCN1C(=O)[C@@H]1CCC(=O)N1)C(=O)N1CCC[C@H]1C(=O)N[C@@H](CCC(=O)O)C(=O)N[C@@H](CCC(N)=O)C(=O)N1CCC[C@H]1C(=O)N[C@@H](CCC(N)=O)C(=O)N1CCC[C@H]1C(=O)N[C@@H](Cc1ccc(O)cc1)C(=O)N1CCC[C@H]1C(N)=O) [Peptide 14],53 % of max,100 % of max,100 % of max,100 % of max,99 % of max,100 % of max,98 % of max,100 % of max,94 % max,100 % of max,100 % of max,100 % of max,100 % of max,100 % of max,100 % max,2 % of max,31 % of max,≥ 100 % of max,≥ 100 % of max,100 % of max,"Percent of maximal response to individual gluten peptides, IP-10 ([3]; Subject 6, Max. 5863 pg/mL): 100 % of max; Percent of maximal response to individual gluten peptides, IP-10 ([3]; Subject 7, Max. 2330 pg/mL): 100 % of max; Percent of maximal response to individual gluten peptides, IP-10 ([3]; Subject 8, Max. 4019 pg/mL): 91 % of max; Percent of maximal response to individual gluten peptides, IP-10 ([3]; Subject 9, Max. 8349 pg/mL): ≥ 100 % of max; Percent of maximal response to individual gluten peptides, IP-10 ([3]; Subject 10, Max. 8922 pg/mL): ≥ 100 % of max; IP-10 WB MAGPIX % max Mean [3]: 82 % max"
